Laboratory results as given in ChEMBL document CHEMBL1201862, “PubChem BioAssay data set” (2004).
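1) Cells in 96-well plates. 2) Compound, 48 h, 5 concentrations. 3) Linear interpolation between surrounding doses. 4) Unreached endpoint = highest concentration. The concentration for 50% growth inhibition is given as GI50.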 Active and inactive are the calls of the source. Rule as the data show it: active = GI50 up to about 1.1 µM and inactive = higher.

Key:
Assay in all cases: growth of human tumour cells (NCI), 48 h
KM12 = tested on: KM12
ACHN = tested on: ACHN
SW-620 = tested on: SW-620
MDA-MB-231 = tested on: MDA-MB-231
HOP-62 = tested on: HOP-62
MDA-MB-435 = tested on: MDA-MB-435
HCT-116 = tested on: HCT-116
K562 = tested on: K562
NCI-H460 = tested on: NCI-H460
CCRF-CEM = tested on: CCRF-CEM
NCI-H226 = tested on: NCI-H226
UO-31 = tested on: UO-31
OVCAR-3 = tested on: OVCAR-3
SF-539 = tested on: SF-539
SNB-19 = tested on: SNB-19
M14 = tested on: M14
RXF 393 = tested on: RXF 393
HCT-15 = tested on: HCT-15
NCI-H23 = tested on: NCI-H23
TK-10 = tested on: TK-10

| SMILES | GI50 (KM12) | GI50 (ACHN) | GI50 (SW-620) | GI50 (MDA-MB-231) | GI50 (HOP-62) | GI50 (MDA-MB-435) | GI50 (HCT-116) | GI50 (K562) | GI50 (NCI-H460) | GI50 (CCRF-CEM) | GI50 (NCI-H226) | GI50 (UO-31) | GI50 (OVCAR-3) | GI50 (SF-539) | GI50 (SNB-19) | GI50 (M14) | GI50 (RXF 393) | GI50 (HCT-15) [µM] | GI50 (NCI-H23) | GI50 (TK-10) |
| --- | --- | --- | --- | --- | --- | --- | --- | --- | --- | --- | --- | --- | --- | --- | --- | --- | --- | --- | --- | --- |
| CCc1cccc(C(C)(C)C)c1NC(=S)N/C=C(/C#N)C(N)=O | > 100 µM (inactive) | > 100 µM (inactive) | > 100 µM (inactive) | > 100 µM (inactive) | > 100 µM (inactive) | > 100 µM (inactive) | > 100 µM (inactive) | > 100 µM (inactive) | > 100 µM (inactive) | > 100 µM (inactive) | > 100 µM (inactive) | 31.3 µM (inactive) | 92.7 µM (inactive) | > 100 µM (inactive) | > 100 µM (inactive) | > 100 µM (inactive) | > 100 µM (inactive) | 62.4 | > 100 µM (inactive) | – |
| CC(=O)OCC1OC(Nn2c(=O)[nH]c3ccccc3c2=O)C(OC(C)=O)C(OC(C)=O)C1OC(C)=O (configuration not stated) | > 100 µM (inactive) | > 100 µM (inactive) | > 100 µM (inactive) | > 100 µM (inactive) | > 100 µM (inactive) | > 100 µM (inactive) | > 100 µM (inactive) | > 100 µM (inactive) | 27.2 µM (inactive) | 40.2 µM (inactive) | > 100 µM (inactive) | 70.3 µM (inactive) | > 100 µM (inactive) | > 100 µM (inactive) | > 100 µM (inactive) | > 100 µM (inactive) | > 100 µM (inactive) | > 100 | > 100 µM (inactive) | – |
| Cc1cc2c(cc1-c1cc3c(cc1C)C(C(C)C)=C(O)C(=O)/C3=C\Nc1c(C)n(C)n(-c3ccccc3)c1=O)/C(=C/Nc1c(C)n(C)n(-c3ccccc3)c1=O)C(=O)C(O)=C2C(C)C | 71.6 µM (inactive) | 47.5 µM (inactive) | 61.9 µM (inactive) | 42.1 µM (inactive) | 70.1 µM (inactive) | 79.3 µM (inactive) | > 100 µM (inactive) | > 100 µM (inactive) | 54.1 µM (inactive) | 33 µM (inactive) | 98.2 µM (inactive) | > 100 µM (inactive) | 50.2 µM (inactive) | 48.1 µM (inactive) | > 100 µM (inactive) | 50.1 µM (inactive) | 26.1 µM (inactive) | > 100 | > 100 µM (inactive) | – |
| CCc1ccc2c(c1)CC1(C2)Cc2cc3c(cc2C1)C(=O)CC3 (configuration not stated) | 10.5 µM (inactive) | 17.9 µM (inactive) | – | 21.2 µM (inactive) | 19.8 µM (inactive) | 2.69 µM (inactive) | 12.1 µM (inactive) | 3.85 µM (inactive) | – | 2.94 µM (inactive) | 19.7 µM (inactive) | 43.9 µM (inactive) | 17.3 µM (inactive) | 18 µM (inactive) | – | 25.9 µM (inactive) | 36.9 µM (inactive) | 23.9 | 22.9 µM (inactive) | 38.6 µM (inactive) |
| CC(=O)OCCc1cc2ccccc2oc1=O | > 100 µM (inactive) | > 100 µM (inactive) | > 100 µM (inactive) | > 100 µM (inactive) | > 100 µM (inactive) | > 100 µM (inactive) | > 100 µM (inactive) | > 100 µM (inactive) | > 100 µM (inactive) | > 100 µM (inactive) | > 100 µM (inactive) | > 100 µM (inactive) | > 100 µM (inactive) | > 100 µM (inactive) | > 100 µM (inactive) | > 100 µM (inactive) | > 100 µM (inactive) | > 100 | > 100 µM (inactive) | – |
| CCOC(=O)[C@H](CO)NC1=C(Cl)C(=O)c2c(O)ccc(O)c2C1=O | > 10 µM (inactive) | > 10 µM (inactive) | > 10 µM (inactive) | > 10 µM (inactive) | > 10 µM (inactive) | > 10 µM (inactive) | > 10 µM (inactive) | > 10 µM (inactive) | > 10 µM (inactive) | > 10 µM (inactive) | > 10 µM (inactive) | – | > 10 µM (inactive) | > 10 µM (inactive) | > 10 µM (inactive) | > 10 µM (inactive) | > 10 µM (inactive) | > 10 | > 10 µM (inactive) | > 10 µM (inactive) |
| O=C1CC(c2cccc(Cl)c2)n2cccc21 (configuration not stated) | 77.3 µM (inactive) | > 100 µM (inactive) | > 100 µM (inactive) | > 100 µM (inactive) | > 100 µM (inactive) | > 100 µM (inactive) | > 100 µM (inactive) | 61.4 µM (inactive) | – | > 100 µM (inactive) | > 100 µM (inactive) | 26.5 µM (inactive) | > 100 µM (inactive) | > 100 µM (inactive) | > 100 µM (inactive) | > 100 µM (inactive) | > 100 µM (inactive) | > 100 | > 100 µM (inactive) | > 100 µM (inactive) |
| CC[N+](C)(CC)Cc1ccccc1[N+](=O)[O-] | > 100 µM (inactive) | > 100 µM (inactive) | 87.7 µM (inactive) | 72.8 µM (inactive) | 48.4 µM (inactive) | > 100 µM (inactive) | > 100 µM (inactive) | > 100 µM (inactive) | > 100 µM (inactive) | > 100 µM (inactive) | 64.7 µM (inactive) | > 100 µM (inactive) | 26.9 µM (inactive) | > 100 µM (inactive) | – | > 100 µM (inactive) | > 100 µM (inactive) | > 100 | > 100 µM (inactive) | > 100 µM (inactive) |
| Cc1ccc(/N=N/NCCCCN)cc1 | 81.7 µM (inactive) | 12.6 µM (inactive) | > 100 µM (inactive) | > 100 µM (inactive) | > 100 µM (inactive) | > 100 µM (inactive) | > 100 µM (inactive) | > 10 µM (inactive) | – | 9.64 µM (inactive) | > 100 µM (inactive) | 12.2 µM (inactive) | – | > 100 µM (inactive) | 49.2 µM (inactive) | > 100 µM (inactive) | > 100 µM (inactive) | > 100 | > 100 µM (inactive) | > 100 µM (inactive) |
| CCOC(=O)CCc1c(C(=O)OCC)[nH]c(/C=C2\NC(=O)C(C)=C2CC)c1C | > 100 µM (inactive) | 15.5 µM (inactive) | – | 19.8 µM (inactive) | 14.5 µM (inactive) | > 100 µM (inactive) | 33.7 µM (inactive) | > 100 µM (inactive) | 44.3 µM (inactive) | > 100 µM (inactive) | 36.5 µM (inactive) | 44 µM (inactive) | 18.5 µM (inactive) | 27.9 µM (inactive) | – | 24.8 µM (inactive) | 23.2 µM (inactive) | 26.1 | – | – |
| OC(c1ccccc1)(c1cccnc1)C(O)(c1ccccc1)c1cccnc1 (configuration not stated) | > 100 µM (inactive) | > 100 µM (inactive) | > 100 µM (inactive) | > 100 µM (inactive) | – | > 100 µM (inactive) | > 100 µM (inactive) | > 10 µM (inactive) | > 100 µM (inactive) | > 100 µM (inactive) | 69.7 µM (inactive) | > 100 µM (inactive) | – | > 100 µM (inactive) | > 100 µM (inactive) | > 100 µM (inactive) | > 100 µM (inactive) | > 100 | > 100 µM (inactive) | > 100 µM (inactive) |
